Laboratory results published in patent US9573954B2, “Pyrazolopyrimidine compounds” (University Health Network, priority 2012, dated 2017).

target: T1, human TTK (Homo sapiens, UniProt P33981); experiment: TTK inhibition assay (indirect ELISA); format: biochemical; conditions: 16 μM ATP (Sigma cat# A7699); read-out: TTK IC50 Range (denoted with an asterisk)
T1 construct: Active TTK was purchased from Invitrogen as an amino terminal GST fusion of full length human TTK; purchased Invitrogen
T1 sequence (P33981 1-857): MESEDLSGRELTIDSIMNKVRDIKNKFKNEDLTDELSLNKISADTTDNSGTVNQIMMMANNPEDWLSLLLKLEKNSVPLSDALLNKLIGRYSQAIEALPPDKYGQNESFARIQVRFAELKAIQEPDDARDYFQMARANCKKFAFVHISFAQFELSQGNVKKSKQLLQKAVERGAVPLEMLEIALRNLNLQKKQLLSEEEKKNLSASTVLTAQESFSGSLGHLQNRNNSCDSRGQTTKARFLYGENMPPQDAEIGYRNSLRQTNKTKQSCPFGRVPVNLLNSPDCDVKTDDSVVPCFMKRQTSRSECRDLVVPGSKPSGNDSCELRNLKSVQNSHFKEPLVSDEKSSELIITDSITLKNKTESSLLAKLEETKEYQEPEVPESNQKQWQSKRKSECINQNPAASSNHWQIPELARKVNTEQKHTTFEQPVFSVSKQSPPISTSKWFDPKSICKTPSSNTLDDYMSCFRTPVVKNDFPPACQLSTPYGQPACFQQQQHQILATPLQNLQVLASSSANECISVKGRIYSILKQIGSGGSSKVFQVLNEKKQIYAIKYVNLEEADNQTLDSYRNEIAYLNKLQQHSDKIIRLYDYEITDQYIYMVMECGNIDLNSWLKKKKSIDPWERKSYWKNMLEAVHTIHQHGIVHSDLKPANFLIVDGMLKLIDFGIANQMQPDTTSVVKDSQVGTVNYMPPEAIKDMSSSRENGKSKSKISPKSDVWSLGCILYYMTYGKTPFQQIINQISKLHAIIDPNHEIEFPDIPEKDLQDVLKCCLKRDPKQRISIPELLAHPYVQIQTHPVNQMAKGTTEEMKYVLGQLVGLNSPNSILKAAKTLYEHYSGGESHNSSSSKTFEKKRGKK
Description: Active TTK was purchased from Invitrogen as an amino terminal GST fusion of full length human TTK.
TTK activity was measured using an indirect ELISA detection system.
Compounds were pre-incubated in the presence of enzyme for 5 minutes prior to addition of ATP and the activity remaining quantified using the above described activity assay. The % Inhibition of a compound was determined using the following formula; % Inhibition=100×(1−(experimental value−background value)/(high activity control−background value)). The IC50 value was determined using a non-linear 4 point logistic curve fit (XLfit4, IDBS) with the formula; (A+(B/(1+((x/C)^D)))), where A=background value, B=range, C=inflection point, D=curve fit parameter.

`O=C(NC1CC1)c1ccc(-c2cnn3c(NCCCN4CCOCC4)nc(Oc4ccccc4)nc23)cc1` [Example C1, N-cyclopropyl-4-(4-((3-morpholinopropyl)amino)-2-phenoxypyrazolo[1,5-a][1,3,5]triazin-8-yl)benzamide] and `COCCNc1nc(Oc2ccccc2)nc2c(-c3ccc(C(=O)NC4CC4)cc3)cnn12` [Example C6] cannot be ordered by IC50: under 100 nM for the first, under 100 nM for the second.

Compared with `CC(C)NC(=O)c1ccc(-c2cnn3c(NCC4CCOCC4)nc(Oc4ccccc4)nc23)cc1` [Example C2], `CC(C)C(=O)Nc1ccc(-c2cnn3c(NCC4CCOCC4)nc(Oc4ccccc4)nc23)cc1` [Example C3] is higher in IC50: 100 to 500 nM for the first, over 500 nM for the second.

Compared with `CC(C)NC(=O)c1ccc(-c2cnn3c(NCC4CCOCC4)nc(OC4CCCC4)nc23)cc1` [Example C4], `CN(c1nc(NCC2CCOCC2)n2ncc(-c3ccc(C(=O)NC4CC4)c(F)c3)c2n1)C1CCCCC1` [Example C15] is lower in IC50: 100 to 500 nM for the first, under 100 nM for the second.

First: O=C(NC1CC1)c1ccc(-c2cnn3c(NCC4CCOCC4)nc(N4CCCCC4)nc23)cc1Cl [Example C16]
Second: Cc1cc(-c2cnn3c(NCC4CCOCC4)nc(NC4CCCC4)nc23)ccc1NC(=O)C1CC1 [Example C18]
The IC50 of the first is lower: under 100 nM for the first, over 500 nM for the second. The first is the more potent here.

Compound `Cc1cc(-c2cnn3c(NCC4CCOCC4)nc(Oc4ccccc4)nc23)ccc1NC(=O)C1CC1` [Example C17] has an IC50 of over 500 nM.

same assay, conditions: 100 μM ATP; read-out: TTK IC50 Range

`Cc1cc(-c2cnn3c(NCC4CCOCC4)cc(NC[C@@H]4CCCO4)nc23)ccc1C(=O)NC1CC1` [Example C29, (S)-N-cyclopropyl-2-methyl-4-(7-(((tetrahydro-2H-pyran-4-yl)methyl)amino)-5-(((tetrahydrofuran-2-yl)methyl)amino)pyrazolo[1,5-a]pyrimidin-3-yl)benzamide] and `Cc1cc(-c2cnn3c(NC[C@H]4CCCO4)cc(NC4CCOCC4)nc23)ccc1C(=O)NC1CC1` [Example C63] cannot be ordered by IC50: under 100 nM for the first, under 100 nM for the second.

First: Cc1cc(-c2cnn3c(NCC4CCOCC4)cc(Oc4ccncc4)nc23)ccc1C(=O)NC1CC1 [Example C50]
Second: Cc1cc(-c2cnn3c(NCC4CCOCC4)cc(NCc4ccccn4)nc23)ccc1C(=O)NC1CC1 [Example C73]
The IC50 of the first is higher: over 500 nM for the first, under 100 nM for the second. The second is the more potent here.

`Cc1cc(-c2cnn3c(NCCN4CCOCC4)cc(NC4CCOCC4)nc23)ccc1C(=O)NC1CC1` [Example C53] and `Cc1cc(-c2cnn3c(NCCN4CCOCC4)cc(NCC4CC4)nc23)ccc1C(=O)NC1CC1` [Example C76] cannot be ordered by IC50: under 100 nM for the first, under 100 nM for the second.

`Cc1cc(-c2cnn3c(NCCN4CCOCC4)cc(Nc4ccccc4)nc23)ccc1C(=O)NC1CC1` [Example C60] and `Cc1cc(-c2cnn3c(NCCN4CCOCC4)cc(NCc4cccnc4)nc23)ccc1C(=O)NC1CC1` [Example C75] cannot be ordered by IC50: under 100 nM for the first, under 100 nM for the second.

`Cc1cc(-c2cnn3c(NC[C@@H]4CCCO4)cc(NC4CCCC4)nc23)ccc1C(=O)NC1CC1` [Example C64] and `Cc1cc(-c2cnn3c(NC[C@@H]4CCCO4)cc(NC4CCOCC4)nc23)ccc1C(=O)NC1CC1` [Example C65] cannot be ordered by IC50: under 100 nM for the first, under 100 nM for the second.

Compared with `Cc1cc(-c2cnn3c(NCC4CCOCC4)cc(N4CCC(O)CC4)nc23)ccc1C(=O)NC1CC1` [Example C67], `Cc1cc(-c2cnn3c(NCC4CCOCC4)cc(N4CC(O)C4)nc23)ccc1C(=O)NC1CC1` [Example C69] is higher in IC50: under 100 nM for the first, 100 to 500 nM for the second.

`Cc1cc(-c2cnn3c(NCCCn4ccnc4)cc(NC4CCCC4)nc23)ccc1C(=O)NC1CC1` [Example C70] and `Cc1cc(-c2cnn3c(NCCO)cc(NC4CCCC4)nc23)ccc1C(=O)NC1CC1` [Example C81] cannot be ordered by IC50: under 100 nM for the first, under 100 nM for the second.

`COCCNc1cc(NC2CCCC2)nc2c(-c3ccc(C(=O)NC4CC4)c(C)c3)cnn12` [Example C80] and `Cc1cc(-c2cnn3c(NCC4(CO)CCOCC4)cc(NC4CCOCC4)nc23)ccc1C(=O)NC1CC1` [Example C93] cannot be ordered by IC50: under 100 nM for the first, under 100 nM for the second.

Compared with `CC(=O)N1CCN(c2cc(NCC3CCOCC3)n3ncc(-c4ccc(C(=O)NC5CC5)c(C)c4)c3n2)CC1` [Example C84], `Cc1cc(-c2cnn3c(NCCN4CCOCC4)cc(OC4COC4)nc23)ccc1C(=O)NC1CC1` [Example C101] is higher in IC50: under 100 nM for the first, 100 to 500 nM for the second. The first is the more potent here.

First: Cc1cc(-c2cnn3c(NCCN4CCOCC4)cc(Oc4cccc(S(C)(=O)=O)c4)nc23)ccc1C(=O)NC1CC1 [Example C86]
Second: Cc1cc(-c2cnn3c(NCCN4CCOCC4)cc(Oc4cccc(N5CCOCC5)c4)nc23)ccc1C(=O)NC1CC1 [Example C91]
The IC50 of the first is higher: 100 to 500 nM for the first, under 100 nM for the second. The second is the more potent here.

same assay, conditions: Table 1; 16 μM ATP (asterisk); read-out: TTK IC50 Range

First: Cc1cc(-c2cnn3c(NCC4CCOCC4)nc(N(C)C)nc23)ccc1C(=O)NC1CC1 [Example A1, N-Cyclopropyl-4-(2-(dimethylamino)-4-(((tetrahydro-2H-pyran-4-yl)methyl)amino)pyrazolo[1,5-a][1,3,5]triazin-8-yl)-2-methylbenzamide]
Second: O=C(NC1CC1)c1ccc(-c2cnn3c(NCCN4CCOCC4)nc(N4CCC(O)CC4)nc23)cc1 [Example A9, N-cyclopropyl-4-(2-(4-hydroxypiperidin-1-yl)-4-((2-morpholinoethyl)amino)pyrazolo[1,5-a][1,3,5]triazin-8-yl)benzamide]
The IC50 of the first is lower: 100 to 500 nM for the first, over 500 nM for the second. The first is the more potent here.

same assay, conditions: Table 2; 16 μM ATP (asterisk); read-out: TTK IC50 Range

`COCCNc1cc(Oc2cccnc2)nc2c(-c3ccc(C(=O)NC4CC4)cc3)cnn12` [Example B4, N-cyclopropyl-4-(7-((2-methoxyethyl)amino)-5-(pyridin-3-yloxy)pyrazolo[1,5-a]pyrimidin-3-yl)benzamide] and `Cc1cc(-c2cnn3c(NCC(C)(C)O)cc(Oc4cccnc4)nc23)ccc1C(=O)NC1CC1` [Example B28, N-cyclopropyl-4-(7-((2-hydroxy-2-methylpropyl)amino)-5-(pyridin-3-yloxy)pyrazolo[1,5-a]pyrimidin-3-yl)-2-methylbenzamide] cannot be ordered by IC50: under 100 nM for the first, under 100 nM for the second.

Compared with `Cc1cc(-c2cnn3c(NCC4CCOCC4)cc(NC4CCCC4)nc23)ccc1NC(=O)C1CC1` [Example B15, N-(4-(5-(cyclopentylamino)-7-(((tetrahydro-2H-pyran-4-yl)methyl)amino)pyrazolo[1,5-a]pyrimidin-3-yl)-2-methylphenyl)cyclopropanecarboxamide], `Cc1cc(-c2cnn3c(NC[C@H]4CC[C@H](O)CC4)cc(NC4CCOCC4)nc23)ccc1C(=O)NC1CC1` [Example B33, N-cyclopropyl-4-(7-((((1r,4r)-4-hydroxycyclohexyl)-methyl)amino)-5-((tetrahydro-2H-pyran-4-yl)amino)pyrazolo[1,5-a]pyrimidin-3-yl)-2-methylbenzamide] is lower in IC50: over 500 nM for the first, under 100 nM for the second.

`Cc1cc(-c2cnn3c(NCC(C)(C)O)cc(Oc4ccccc4)nc23)ccc1C(=O)NC1CC1` [Example B27, N-cyclopropyl-4-(7-((2-hydroxy-2-methylpropyl)amino)-5-phenoxypyrazolo[1,5-a]pyrimidin-3-yl)-2-methylbenzamide] and `Cc1cc(-c2cnn3c(NCC(C)(C)O)cc(NC4CCOCC4)nc23)ccc1C(=O)NC1CC1` [Example B32, N-cyclopropyl-4-(7-((2-hydroxy-2-methylpropyl)amino)-5-((tetrahydro-2H-pyran-4-yl)amino)pyrazolo[1,5-a]pyrimidin-3-yl)-2-methylbenzamide] cannot be ordered by IC50: under 100 nM for the first, under 100 nM for the second.

In the case of `CC[C@H](Nc1cc(NCC2CCOCC2)n2ncc(-c3ccc(C(=O)NC4CC4)c(C)c3)c2n1)[C@H](C)O` [Example B30, N-cyclopropyl-4-(5-(((2S,3S)-2-hydroxypentan-3-yl)amino)-7-(((tetrahydro-2H-pyran-4-yl)methyl)amino)pyrazolo[1,5-a]pyrimidin-3-yl)-2-methylbenzamide], the IC50 is reported as under 100 nM.
